Results taken from US11518973B2, “Device and method for automated antibiotic susceptibility testing of gram-negative bacteria” (Yellow Sea Fisheries Research Institute Chinese Academy Of …, priority 2018, dated 2022).
Converted amounts (≈) assume the structure as drawn.

Legend:
[1] = test system: Helicobacter pylori; test: Synergetic effect of levofloxacin and clarithromycin by contactless conductivity (ΔC) monitoring of bacterial growth; assay type: cell-based; details: indicates growth
Protocol: Step 3: Involved hardware, containers, tools, consumables and special liquid medium for Helicobacter pylori are sterilized with high temperature steam (121° C.), following by cooling down to room temperature in sterile vessels. The special liquid medium is purchased from Qingdao Hope Bio-Technology Co., Ltd (Qingdao, China).
Step 4: Levofloxacin solutions at concentrations of 0.2, 0.4, 0.6 and 0.8 g/l are prepared with ultrapure sterile water. Clarithromycin solutions at concentrations of 0.2, 0.4, 0.6 and 0.8 g/l are prepared with ethyl alcohol.
Step 5: Eight milliliter sterilized special liquid medium for Helicobacter pylori is transferred into a 10 ml centrifuge tube with a pipette.
Step 6: Twelve well-definite bacterial colonies are transferred from inoculating dish, on which Helicobacter pylori is cultured for 18-20 h, into the 10 ml centrifuge tube to prepare bacterial suspension.
Step 7: One-end-closed disposable PVC tubes in length of 12 cm are used as test tubes (5). […]

[2] = test system: Dysentery Bacillus; test: AST assay of levofloxacin by contactless conductivity (ΔC) monitoring of bacterial growth; assay type: cell-based, Dysentery Bacillus (Enterobacteriaceae strain)
Protocol: f. Judging the bacterial cells proliferation result based on the ΔCs at the final point. The ΔC is equal to or larger than 10.0 μS/cm, indicating a proliferation; and ΔC is equal to or lower than 1.0 μS/cm, indicating a completely inhibition. The MIC is defined as the lowest concentration of antibiotic resulting in complete inhibition of growth.
Step 1: According to FIG. 1, an automated device with eight test channels is set up. An HtPot50 dry incubator, which is produced by ABSON Scientific Instruments Co. (Hefei, China), is used as a temperature control unit. The used 0.22 μm disposable syringe filter is produced by Zhejiang Aijiren INC (Quzhou, China). The actuator electrode A, pick-up electrode L and pick-up electrode S are all copper cylinders in external diameter of 4.00 mm with 0.95 mm wall thickness. Their lengths are 16 mm, 16 mm and 10 mm, respectively. In every test channel the three electrodes are coaxially fixed with fixing plate. The distance between the pick-up electrode L and pick-up electrode S is 5 mm; and the distance between the pick-up electrode S and the actuator electrode A is 10 mm. All of the electrodes of the eight test channels are linked to an ER815 capacitively coupled contactless conductivity detector (eDAQ Ltd, Australia). The capacitively coupled contactless conductivity detector is controlled with TERA TERM software installed in E470c laptop computer (Legend Holdings Corporation, China).
Step 2: The temperature in the constant temperature chamber (6) is set to be 36° C. with a nonidentity ≤0.5° C. by clicking the button of temperature control.
Step 3: Involved hardware, containers, tools, consumables and special liquid medium for Enterobacteriaceae are sterilized with high temperature steam (121° C.), following by cooling down to room temperature in sterile vessels. In the special liquid medium the concentrations of beef powder, proteose peptone, lactose, No. 3 bile salt, sodium citrate, sodium thiosulfate and ferric citrate are 5.0, 5.0, 10.0, 8.5, 8.5, 8.5 and 1.0 g/L, respectively. […]

SMILES | ΔC at the end of incubation ([1]; clarithromycin alone 0.10, 0.20, 0.30 and 0.40 mg/l (tubes No. 1-4, Step 12)) [μS/cm] | MIC ([2]; Bacillus, lowest concentration with complete inhibition of growth (ΔC not more than 1.0 μS/cm), 36° C., 21600 s) [µg/mL] | ΔC at the end of incubation ([2]; levofloxacin 0.25, 0.50 and 1.00 mg/l (tubes No. 1-3), indicates growth) [μS/cm] | ΔC at the end of incubation ([2]; levofloxacin 2.00, 3.00, 4.00, 5.00 and 6.00 mg/l (tubes No. 4-8), growth completely inhibited) | ΔC at the end of incubation ([1]; levofloxacin alone 0.10, 0.20, 0.30 and 0.40 mg/l (tubes No. 1-4)) [μS/cm]
CC[C@H]1OC(=O)[C@H](C)[C@@H](O[C@H]2C[C@@](C)(OC)[C@@H](O)[C@H](C)O2)[C@H](C)[C@@H](O[C@@H]2O[C@H](C)C[C@H](N(C)C)[C@H]2O)[C@](C)(OC)C[C@@H](C)C(=O)[C@H](C)[C@@H](O)[C@]1(C)O [clarithromycin] | ≥ 14.0 |  |  |  | 
C[C@H]1COc2c(N3CCN(C)CC3)c(F)cc3c(=O)c(C(=O)O)cn1c23 [levofloxacin] |  | 2 (≈ 5.53 µM) | ≥ 18.0 | not more than 1.0 μS/cm | ≥ 22.0
